# Data taken from patent US20050153992A1, “Pyrrolopyrimidine thion derivatives” (TEIJIN PHARMA LIMITED, priority 2003, published 2005).
# Target: recombinant human GSK-3β (Homo sapiens, UniProt P49841)
# Assay: Determination of Inhibition of GSK-3 Activity (phospho-glycogen synthase peptide-2, [γ-33P]ATP, scintillation counting)
# Assay type: biochemical
# Conditions: 20 μM ATP, 20 minutes at room temperature; read-out: GSK-3 inhibitor activity values (IC50 values)
# Description: Determination of Inhibition of GSK-3 Activity
# The reaction was initiated by adding 25 μL of phospho-glycogen synthase peptide-2 substrate solution [containing 6 μM phospho-glycogen synthase peptide-2, 20 μM ATP, 16 mM MOPS buffer (pH 7.0), 0.2 mM EDTA, 20 mM magnesium acetate, 0.1 μ Ci[γ-^33P]ATP (relative activity: approximately 110 TBq/mmol)] to 5 μL of each test compound using 5% dimethylsulfoxide as a solvent, and further adding 20 μL of GSK-3β enzyme solution [containing 10 mU recombinant human GSK-3β, 20 mM MOPS buffer (pH 7.0), 1 mM EDTA, 0.1% polyoxyethylene lauryl ether (23 Lauryl Ether; Brij 35), 5% glycerol, and 0.1% β-mercaptoethanol. After 20 minutes at room temperature, the reaction was terminated by the addition of the equivalent amount of 200 mM phosphoric acid solution. 90 μL of the reaction product was spotted onto a multiscreen PH plate (manufactured by Millipore) and washed with 100 mM phosphoric acid solution. The plate was dried, and 30 μL of MicroScint-O (manufactured by Packard BioScience) was added thereto. To evaluate inhibitory activity, cpm was counted using a scintillation counter. Here, Phospho GS Peptide 2 is an amino acid peptide having the following sequence: […]P)-Glu-Asp-Glu- Glu-Glu.
# GSK-3 inhibitor activity values (IC50 values) of the compounds according to the present invention were measured by the method described above. As a result, inhibition activity of IC50<100 nM was confirmed in compounds of compound numbers 1, 35, 36, 37, 123, 157, 158, 160, 193, 234, and 263.
# recombinant human GSK-3β, sequence (P49841 whole entry): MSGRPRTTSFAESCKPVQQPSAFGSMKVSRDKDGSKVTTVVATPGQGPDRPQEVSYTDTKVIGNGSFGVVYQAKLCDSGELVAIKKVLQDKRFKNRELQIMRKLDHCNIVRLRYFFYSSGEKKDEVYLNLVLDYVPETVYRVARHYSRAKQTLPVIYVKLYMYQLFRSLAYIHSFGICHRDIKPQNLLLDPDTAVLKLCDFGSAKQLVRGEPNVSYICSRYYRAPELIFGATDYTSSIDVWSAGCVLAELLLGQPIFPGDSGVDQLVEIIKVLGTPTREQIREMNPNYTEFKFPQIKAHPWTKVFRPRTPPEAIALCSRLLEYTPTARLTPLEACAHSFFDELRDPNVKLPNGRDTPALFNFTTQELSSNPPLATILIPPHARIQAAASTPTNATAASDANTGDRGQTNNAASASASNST
row,Structure (SMILES),IC50
1,"CCn1nc(C)cc1C(=O)NCCn1c(-c2sccc2Cl)c(I)c2nc[nH]c(=S)c21 [Compound 234, N-{2-[6-(3-chloro(2-thienyl))-7-iodo-4-thioxo(3-hydropyrrolo[3,2-d]pyrimidin-5-yl)]ethyl}(1-ethyl-3-methylpyrazol-5-yl)carboxyamide]",< 100 nM
2,O=C(NCCn1c(-c2sccc2Cl)c(Cl)c2nc[nH]c(=S)c21)c1ccc(F)cc1 [Compound 157],< 100 nM
3,"O=C(NCCn1c(-c2sccc2Cl)c(NC(=O)c2ccccc2)c2nc[nH]c(=S)c21)c1ccc(F)cc1 [Compound 193, N-{2-[6-(3-chloro(2-thienyl))-7-(phenylcarbonylamino)-4-thioxo(3-hydropyrrolo[3,2-d]pyrimidin-5-yl)]ethyl}(4-fluorophenyl)carboxyamide]",< 100 nM
4,O=C(NCCn1c(-c2sccc2Cl)c(Br)c2nc[nH]c(=S)c21)c1ccc(F)cc1 [Compound 158],< 100 nM
5,O=C(NCCn1c(-c2sccc2Cl)c(-c2cccnc2)c2nc[nH]c(=S)c21)C(F)(F)F [Compound 123],< 100 nM
6,"O=C(NCCn1c(-c2sccc2Cl)c(I)c2nc[nH]c(=S)c21)c1ccc(F)cc1 [Compound 1, N-{2-[6-(3-chloro(2-thienyl))-7-iodo-4-thioxo(3-hydropyrrolo[3,2-d]pyrimidin-5-yl)]ethyl}(4-fluorophenyl)carboxyamide]",< 100 nM
7,"Nc1c(-c2sccc2Cl)n(CCNC(=O)c2ccc(F)cc2)c2c(=S)[nH]cnc12 [Compound 160, N-{2-[7-amino-6-(3-chloro(2-thienyl))-4-thioxo(3-hydropyrrolo[3,2-d]pyrimidin-5-yl)]ethyl}(4-fluorophenyl)carboxyamide]",< 100 nM
8,"S=c1[nH]cnc2c(I)c(-c3sccc3Cl)n(CCNc3ncnc4ccccc34)c12 [Compound 37, 6-(3-chloro(2-thienyl))-7-iodo-5-[2-(quinazolin-4-ylamino)ethyl]-3-hydropyrrolo[3,2-d]pyrimidin-4-thione]",< 100 nM
